Test results taken from the NIST ThermoML archive (doi:10.1021/acs.jced.9b00511).

Key:
[1] = Wilhelmy Plate
[2] = wn = mass fraction of the nth substance listed; settings: Wilhelmy Plate

CCCCn1cc[n+](C)c1.NCC(=O)[O-] [1-butyl-3-methylimidazolium glycinate]
[1]
Settings | surface tension liquid-gas [mN/m]
303.2 K | 42.9
308.2 K | 42.6
313.2 K | 42.4
318.2 K | 42.1
323.2 K | 41.7

CCCCn1cc[n+](C)c1.NCC(=O)[O-] [1-butyl-3-methylimidazolium glycinate] + O
surface tension liquid-gas [mN/m], [2]
Settings | w1 = 0.025 | w1 = 0.05 | w1 = 0.075 | w1 = 0.1 | w1 = 0.15 | w1 = 0.2 | w1 = 0.4 | w1 = 0.6 | w1 = 0.8 | w1 = 1
303.2 K | 59.4 | 56.7 | 53.6 | 50.7 | 48.3 | 46.8 | 46 | 45.5 | 44.7 | 42.9
308.2 K | 56.8 | 54.3 | 51.6 | 49.2 | 47.3 | 45.9 | 45.3 | 44.9 | 44.1 | 42.6
313.2 K | 54.1 | 51.9 | 49.5 | 47.7 | 46.2 | 45 | 44.6 | 44.3 | 43.5 | 42.4
318.2 K | 51.5 | 49.6 | 47.8 | 46.4 | 45.1 | 44.2 | 43.8 | 43.4 | 42.8 | 42.1
323.2 K | 48.9 | 47.3 | 46.1 | 45.1 | 44 | 43.4 | 43 | 42.6 | 42.1 | 41.7

CC(O)CN(C)C (stereo not given) [1-(dimethylamino)-2-propanol] + O
surface tension liquid-gas [mN/m], [2]
Settings | 303.2 K | 308.2 K | 313.2 K | 318.2 K | 323.2 K
w1 = 0.3 | 36.2 | 35.4 | 34.6 | 33.9 | 33.2
w1 = 0.4 | 33.5 | 32.7 | 32.1 | 31.5 | 30.9
w1 = 0.5 | 31.5 | 31 | 30.2 | 29.6 | 29.1
w1 = 1 | 24 | 23.2 | 22.6 | 22 | 21.3

CC(O)CN(C)C (stereo not given) [1-(dimethylamino)-2-propanol]
[1]
Settings | surface tension liquid-gas [mN/m]
303.2 K | 24
308.2 K | 23.2
313.2 K | 22.6
318.2 K | 22
323.2 K | 21.3

CCCCn1cc[n+](C)c1.NCCCC[C@H](N)C(=O)[O-] [1-butyl-3-methylimidazolium L-lysinate]
[1]
Settings | surface tension liquid-gas [mN/m]
303.2 K | 45.9
308.2 K | 45.5
313.2 K | 45.1
318.2 K | 44.7
323.2 K | 44.2

C[N+](C)(C)C.NCC(=O)[O-] [tetramethylammonium glycinate]
[1]
Settings | surface tension liquid-gas [mN/m]
303.2 K | 56.2
308.2 K | 55.6
313.2 K | 55.1
318.2 K | 54.5
323.2 K | 53.9
